These results are taken from article PMC11548477, “Cathepsin B- and L-like Protease Activities Are Induced During Developmental Barley Leaf Senescence” (Plants, 2024).

Assay [1] deals with cathepsin B-like activity (Z-RR-AMC cleavage) in crude protein extract from barley leaves. Briefly: Z-RR-AMC cleavage by crude protein extract from barley leaves. The format is biochemical, Hordeum vulgare. As to the method:
(§1) Frozen leaves were homogenized with a pre-chilled pestle and mortar in cold extraction buffer (0.1 M Tris–HCl, pH 7.4, 2 mM DTT) at a ratio of 167 mg of leaves:1 mL buffer. The homogenate was centrifugated at 20,000× g for 30 min at 4 °C. The supernatant, which was kept in an ice bath, was used as a sample for measurements of peptidase activity and protein content.
(§2) Fluorogenic substrates Z-FR-AMC to determine cathepsin B- and L-like activity, and Z-RR-AMC to determine cathepsin B-like activity, were used. These substrates show fluorescence when AMC is released as a consequence of the hydrolysis of the Arg-AMC bond. The emitted fluorescence was detected with a SpectraMax M2 microplate reader (Molecular Devices, San Jose, CA, USA) with λex = 360 nm and λem = 460 nm. Before use, the substrates were dissolved in DMSO at 10 mM and frozen at −20 °C. The measurements were made in 96-well black microplates (PerkinElmer Inc, Waltham, MA, USA), and each well contained a 100 μL final volume of an appropriate 0.1 M buffer with DTT (2 mM), extract (1.6 mg of fresh weight), and substrate (25 μM). The reaction was initiated by the addition of the substrate. The final concentration of DMSO in microplate wells was 1% in all the assays. The assays were conducted at room temperature, and relative fluorescence readings were recorded over a period of 10 min.
(§3) For the inhibition assays, an inhibitor (1 µL of stock solution in DMSO) at different concentrations was added to the reaction mixture. For all inhibitors tested, the concentration of inhibitor that caused 50% inhibition of the enzymatic reaction (IC50) was calculated by plotting % inhibition against the logarithm of inhibitor concentration (at least six points). The data are presented as the mean values of at least three independent experiments.

Assay [2] relates to cathepsin B- and L-like activity (Z-FR-AMC cleavage) in crude protein extract from barley leaves. Description: Z-FR-AMC cleavage by crude protein extract from barley leaves. The format is biochemical, Hordeum vulgare. As to the method: as §1, §2, §3
The target of assay [3] is aminopeptidase B and cathepsin H-like activity (R-AMC cleavage) in crude protein extract from barley leaves. Description: R-AMC cleavage by crude protein extract from barley leaves. The format is biochemical, Hordeum vulgare. The following applies: for IC50 / inhibition of R-AMC cleavage: week-3 leaf extract; for concentration up to which no activity on R-AMC cleavage was seen: week-3 leaf samples.

Assay [4] has as its system aminopeptidase in alfalfa extracts. Further details: method as in PMID 10681066, PMID 21787929. Conditions: cited from earlier work.
The subject of assay [5] is aminopeptidase in barley extracts. More on the design: method as in PMID 10681066, PMID 21787929. Conditions: cited from earlier work.
Assay [6] has as its target 38 kDa DCG-04-labeled cysteine protease band (cathepsin B-like protease(s)). Briefly: inhibition of DCG-04 binding (activity-based labeling), 38 kDa band. Further details: species or system Hordeum vulgare. Conditions: 2.5 μM DCG-04, pH 5.5, 3 h, week-4 leaf extract; for IC50: densitometric analysis of blots. Here is the method: (§4) The protein extracts of barley leaves obtained 4 weeks after flowering were preincubated with different concentrations of the inhibitors and proteins were labeled with 2.5 μM DCG-04 at pH 5.5 for 3 h. DMSO (solvent for inhibitors) was used as a control.
(§5) Densitometric analysis was based on 2 blots (mean values ± S.D.); data were normalized to the control value (DMSO solvent without inhibitor). The chemical structures of the inhibitors and calculated values of iLogP are shown on the right side of the figure.
(§6) Protein extracts from barley leaves (67 mg of fresh weight) were incubated with 2.5 μM DCG-04 in 0.1 M citrate buffer, pH 5.5, containing 2 mM DTT. When cysteine protease inhibitors E-64 and CA-074 were used, extracts were preincubated with the inhibitors for 10 min before addition of DCG-04. […] After the incubation, reactions were stopped and proteins were precipitated with inclusion of 100 mM NaCl, along with 80% acetone for rapid precipitation. The pellets were mixed with Laemmli loading buffer and boiled for 5 min [63]. Proteins were then separated on ready-made ExpressPlus^TM 4–12% acrylamide gels (GenScript Inc., Piscataway, NJ, USA) in Tris-MOPS SDS-PAGE Running Buffer (GenScript). After SDS-PAGE, proteins were transblotted onto nitrocellulose membrane (BioTrace™ NT nitrocellulose transfer membrane, Cytiva Life Sciences, Marlborough, MA, USA) and blocked for 1 h in 5% non-fat milk in 20 mM Tris-buffered saline (150 mM NaCl), pH 7.4, containing 0.1% Tween-20 (TBST). The membranes were washed 3 × 10 min in TBST and then incubated with streptavidin-HRP (dilution 1:2000 in 1% non-fat milk in TBST) for 1 h and washed again 3 × 10 min in TBST. The membranes were developed using the SuperSignal™ West Pico PLUS Chemiluminescent Substrate (Thermo Scientific, Rockford, IL, USA) and images were obtained using GeneTools by Syngene on a GeneSys imaging platform (Syngene, Frederick, MD, USA). Luminescent signal intensity was calculated by raw volume using GeneTools analysis Version 4.0 software from Syngene.

The subject of assay [7] is 43 kDa DCG-04-labeled cysteine protease band (cathepsin L-like protease or proteases). Description: inhibition of DCG-04 binding (activity-based labeling), 43 kDa band. Further details: species or system Hordeum vulgare. The following applies: 2.5 μM DCG-04, pH 5.5, 3 h, week-4 leaf extract; for IC50: densitometric analysis of blots. Here is the method:
as §4, §5, §6

In assay [8] the test system is caseinolytic protease activity of extract obtained from week-4 barley leaves. Briefly: caseinolytic (total) protease activity with casein-FITC in barley leaf extract. Type of assay: biochemical, Hordeum vulgare. Conditions: casein-FITC substrate; extract of week-4 barley leaves; pH 7.4. Here is the method:
as §1, §3

For the next assay, the system named is aleurain. More on the design: method as in PMID 16669011. The following applies: 10 μM leupeptin; cited from earlier work.
The mark [9] stands for this setting: pH 7.4, week-4 leaf extract, 'No inhibition up to X' given as > X, read-out: IC50, Z-RR-AMC cleavage.
The mark [10] stands for this setting: pH 7.4, week-4 leaf extract, 'No inhibition up to X' given as > X, read-out: IC50, Z-FR-AMC cleavage.
The mark [11] stands for this setting: pH 7.4, 'No inhibition up to X' given as > X.
[12] abbreviates: pH 5.5, week-4 leaf extract, read-out: IC50, Z-RR-AMC cleavage.
[13] abbreviates: pH 7.4, week-4 leaf extract, read-out: IC50, Z-RR-AMC cleavage.
Where [14] appears, read: pH 5.5, week-4 leaf extract, read-out: IC50, Z-FR-AMC cleavage.
Where [15] appears, read: pH 7.4, week-4 leaf extract, read-out: IC50, Z-FR-AMC cleavage.
[16] abbreviates: pH 5.5, 'No inhibition up to X' given as > X.

Structures are written as SMILES. Like-named read-outs stand apart in the source and are kept apart here. Where a SMILES comes first, the peptide text is derived from it. [ ]: non-standard residue; d: D form. The star is where a group is joined. Sta = CC(C)C[C@H](N)[C@@H](O)CC(=O)O; Isovaleryl = CC(C)CC(=O)*

Regarding `c1cnc2c(c1)ccc1cccnc12` [1,10-Phenanthroline], the concentration for half-maximal inhibition (IC50) in assay [1] (pH not given, week-4 leaf extract, read-out: IC50, Z-RR-AMC cleavage) was found to be 3100 ± 200 µM; in assay [2] (pH not given, week-4 leaf extract, read-out: IC50, Z-FR-AMC cleavage), 8900 ± 300 µM; in [3] (pH not given), 560 ± 110 µM.

As for `CC(C)C[C@H](NC(=O)[C@@H](O)[C@H](N)Cc1ccccc1)C(=O)O` [Bestatin], the half-inhibitory concentration (IC50) is over 1000 µM in assay [1] (setting [9]), over 1000 µM in assay [2] (setting [10]) and 580 ± 120 µM in assay [3] (setting [11]). Further, the “concentration required for complete inhibition of aminopeptidase” value in [4] and in [5] was 0.1 mM each time.

In the case of `CCCNC(=O)[C@H]1O[C@@H]1C(=O)N[C@H](C(=O)N1CCC[C@H]1C(=O)O)[C@@H](C)CC` [CA-074, (2S)-1-[(2S,3S)-3-methyl-2-[[(2S,3S)-3-(propylcarbamoyl)oxirane-2-carbonyl]amino]pentanoyl]pyrrolidine-2-carboxylic acid], the half-inhibitory concentration (IC50) in assay [1] (setting [12]) worked out at 22.7 ± 5.3 µM; in assay [1] (setting [13]) it was 80.7 ± 12.4 µM; in [6], 1800 ± 600 nM; in assay [2] (setting [14]), 11.3 ± 2.2 µM; in assay [2] (setting [15]), 31 ± 5.6 µM; in assay [7], 26400 ± 2800 nM. The 50% inhibitory concentration (IC50) in [3] (setting [16]) and in [3] (setting [11]) was over 200 µM each time. Besides, the “concentration that totally blocks DCG-04 binding to the 43 kDa band” value in [7] is over 100 µM. Moreover, the “concentration up to which no activity on R-AMC cleavage was seen” value in assay [3] (pH not given) is listed as over 0.2 mM.

In the case of `O=C(NCc1ccccc1)C(Cc1ccccc1)NC(=O)C1OC1C(=O)NCCc1ccc(O)cc1` [CAA0225, (2S,3S)-oxirane-2,3-dicarboxylic acid 2-[((S)-1-benzylcarbamoyl-2-phenyl-ethyl)-amide] 3-{[2-(4-hydroxy-phenyl)-ethyl]-amide}], the IC50 was 0.0906 ± 0.0122 µM in [1] (setting [12]); 0.0116 ± 0.0035 µM in assay [1] (setting [13]); 0.12 ± 0.0143 µM in assay [2] (setting [14]); 0.0117 ± 0.0026 µM in [2] (setting [15]); 290 ± 110 nM in assay [7]; over 200 µM in [3] (setting [16]). The concentration for half-maximal inhibition (IC50) in assay [3] (setting [11]) is over 200 µM. Also, the “effect on DCG-04 binding to the 38 kDa band” value in assay [6] is recorded as “did not block binding”. Further, the “concentration that totally blocks DCG-04 binding to the 43 kDa band” value in assay [7] is reported as over 6 µM. Moreover, in assay [3] (pH not given), the “concentration up to which no activity on R-AMC cleavage was seen” value was over 0.2 mM.

For `CCOC(=O)[C@H]1O[C@@H]1C(=O)N[C@@H](CC(C)C)C(=O)N[C@@H](Cc1ccc(O)cc1)C(=O)NCCCCCC(=O)N[C@@H](CCCCNC(=O)CCCC[C@@H]1SC[C@@H]2NC(=O)N[C@@H]21)C(N)=O` [DCG-04], the half-maximal inhibitory concentration (IC50) in [1] (preliminary experiments, barley leaf extracts, pH not stated, read-out: IC50, proteolytic activity with Z-RR-AMC) came to 1.8 ± 0.4 µM; in assay [2] (preliminary experiments, barley leaf extracts, pH not stated, read-out: IC50, proteolytic activity with Z-FR-AMC) it was 1.8 ± 0.4 µM.

Consider `CC(C)C[C@H](NC(=O)[C@H]1O[C@@H]1C(=O)O)C(=O)NCCCCNC(=N)N` [E-64, trans-epoxysuccinyl-L-leucylamido-(4-guanidino) butane], for which the IC50 in assay [1] (setting [12]) is 0.0062 ± 0.0017 µM; in assay [1] (setting [13]), 0.0081 ± 0.0019 µM; in assay [6] it was 46.4 ± 9.1 nM; in [8], 64.4 ± 3.1 nM; in assay [2] (setting [14]), 0.0123 ± 0.0028 µM; in assay [2] (setting [15]) it was 0.0245 ± 0.0042 µM. The IC50 in assay [7] was 48 ± 12.2 nM. Moreover, in [6], the “concentration that totally blocks DCG-04 binding to the 38 kDa band” value amounted to 1 µM. Further, the “concentration that totally blocks DCG-04 binding to the 43 kDa band” value in assay [7] was found to be 1 µM. The “inhibition of R-AMC cleavage” value in assay [3] (at 0.2–200 µM, pH 7.4) is given as 20–25% inhibition at 0.2–200 µM; in [3] (at 1–200 µM, pH 5.5) it was 40–45% inhibition at 1–200 µM.

Regarding `CC(=O)N[C@@H](CC(C)C)C(=O)N[C@@H](CC(C)C)C(=O)N[C@H](C=O)CCCNC(=N)N` [Leupeptin], the IC50 in assay [1] (setting [9]) was 610 ± 30 µM; in assay [3] (setting [11]), over 400 µM. Besides, the inhibition of aleurain with aleurain is reported as ~ 75%. The “inhibition of Z-FR-AMC cleavage” value in [2] (at 0.4 mM, pH 7.4, week-4 leaf extract) turned out to be 30% inhibition at 0.4 mM.

As to `O=S(=O)(F)Cc1ccccc1` [PMSF, Phenylmethylsulfonyl fluoride], the “inhibition of Z-RR-AMC cleavage” value in [1] (at 2 mM, pH 7.4, week-4 leaf extract) is listed as 30% inhibition at 2 mM. The IC50 in [2] (setting [10]) and in [3] (setting [11]) was over 2000 µM each time.

As to `CC(C)CC(=O)N[C@H](C(=O)N[C@H](C(=O)N[C@@H](CC(C)C)[C@@H](O)CC(=O)N[C@@H](C)C(=O)N[C@@H](CC(C)C)[C@@H](O)CC(=O)O)C(C)C)C(C)C` [Pepstatin A] (Isovaleryl-VV[Sta]A[Sta]-OH), the IC50 in assay [1] (setting [9]), in assay [2] (setting [10]) and in assay [3] (setting [11]) was over 200 µM throughout.
